From patent US20120309734A1, “COMBRETASTATIN DERIVATIVES AND USES THEREFOR” (priority 2009, published 2012)
One block for each compound: values may come before it.

What was measured:
[1] = test system: A2780-ADR (PGP); assay: Alamar Blue cell viability assay; settings: for IC50: A2780 ADR, 72 h; for RF: IC50 A2780-ADR (PGP) / IC50 A2780-parental
[2] = test system: A2780-parental; assay: Alamar Blue cell viability assay; assay type: cell-based; settings: 72 h
[3] = test system: MCF-7 breast cancer cell line; assay: Antiproliferation study, MTT cell viability assay; assay type: cell-based; settings: Homo sapiens, MCF7, 72 h, antiproliferative activity, MTT, 72 h; read-out: IC50 (μM) MCF-7 cell line
Experimental: All assays were performed in triplicate for the determination of mean values reported. Compounds were assayed as the free bases isolated from reaction. The human breast tumour cell line MCF-7 was cultured in Eagles minimum essential medium in a […] atmosphere with 10% fetal bovine serum, 2 mM L-glutamine and 100 μg/mL penicillin/streptomycin. The medium was supplemented with 1% non-essential amino acids. MDA-MB-231 cells were maintained in Dulbecco's Modified Eagle's medium (DMEM), supplemented with 10% (v/v) Fetal bovine serum, 2 mM L-glutamine and 100 μg/mL penicillin/streptomycin (complete medium). Cells were trypsinised and seeded at a density of 2.5×10^4 cells/ml in a 96-well plate and incubated at 37° C., […] atmosphere for 24 h. […] Control wells contained the equivalent volume of the vehicle ethanol (1% v/v). The culture medium was then removed and the cells washed with 100 μL phosphate buffered saline (PBS) and 50 μL MTT added, to reach a final concentration of 1 mg/mL MTT added. Cells were incubated for 2 h in darkness at 37° C. At this point solubilization was begun through the addition of 200 μL DMSO and the cells maintained at room temperature in darkness for 20 min to ensure thorough colour diffusion before reading the absorbance. The absorbance value of control cells (no added compound) was set to 100% cell viability and from this graphs of absorbance versus cell density per well were prepared to assess cell viability and from these, graphs of percentage cell viability versus concentration of subject compound added were drawn.

[4] = Stability by HPLC at three pH values; assay type: physicochemical
Experimental: The stability of β-lactam compounds 4, 8 and 12 was assessed by HPLC at three different pH values. […] The half-lives of 8 and 12 were both greater than 24 hours at all pH values. The stability of three ester prodrug derivatives of 4, i.e. 29, 30 and 31, was also assessed (FIG. 6).

[5] = test system: HL-60 parental; assay: Alamar Blue cell viability assay; assay type: cell-based; settings: Homo sapiens, 72 h
[6] = test system: HL-60-MDR(PGP); assay: Alamar Blue cell viability assay; assay type: cell-based, human; settings: for IC50: Homo sapiens, HL60/MDR, HL-60-MDR(PGP), 72 h, Alamar blue, read-out: IC50; for RF: IC50 HL-60-MDR(PGP) / IC50 HL-60 parental

Structure (SMILES): COc1cccc2c1C(=O)c1c(O)c3c(c(O)c1C2=O)C[C@@](O)(C(=O)CO)C[C@@H]3O[C@H]1C[C@H](N)[C@H](O)[C@H](C)O1 [Adriamycin, adriamycin]
IC50 [1]: 5100 nM
RF [1]: 119.2
IC50 [2]: 42.8 nM

Structure (SMILES): C=C(C)C1C(=O)N(c2cc(OC)c(OC)c(OC)c2)C1c1ccc(OC)c(O)c1 (centres unmarked) [Compound 3, 4-(3-Hydroxy-4-methoxy-phenyl)-3-isopropenyl-1-(3,4,5-trimethoxy-phenyl)-azetidin-2-one]
IC50 [3]: 0.019 µM

Structure (SMILES): COc1ccc(C2C(C(C)O)C(=O)N2c2cc(OC)c(OC)c(OC)c2)cc1O (centres unmarked) [Compound 6, 3-(1-Hydroxy-ethyl)-4-(3-hydroxy-4-methoxy-phenyl)-1-(3,4,5-trimethoxy-phenyl)-azetidin-2-one]
IC50 [3]: 0.0376 µM

Structure (SMILES): COc1ccc(C2C(c3ccc(O)cc3)C(=O)N2c2cc(OC)c(OC)c(OC)c2)cc1 (centres unmarked) [Compound 10, 3-(4-Hydroxy-phenyl)-4-(4-methoxy-phenyl)-1-(3,4,5-trimethoxy-phenyl)-azetidin-2-one]
melting point: 155 °C
IC50 [3]: 0.059 µM

Structure (SMILES): COc1ccc(C2C(c3ccc(F)cc3)C(=O)N2c2cc(OC)c(OC)c(OC)c2)cc1 (centres unmarked) [Compound 11, 3-(4-Fluoro-phenyl)-4-(4-methoxy-phenyl)-1-(3,4,5-trimethoxy-phenyl)-azetidin-2-one]
melting point: 120 °C
IC50 [3]: 0.042 µM

Structure (SMILES): COc1ccc(C2C(c3ccc(F)cc3)C(=O)N2c2cc(OC)c(OC)c(OC)c2)cc1N (centres unmarked) [Compound 17, 4-(3-Amino-4-methoxy-phenyl)-3-(4-fluoro-phenyl)-1-(3,4,5-trimethoxy-phenyl)-azetidin-2-one]
IC50 [3]: 0.055 µM

Structure (SMILES): COc1ccc(C2C(c3cccs3)C(=O)N2c2cc(OC)c(OC)c(OC)c2)cc1N (centres unmarked) [Compound 19, 4-(3-Amino-4-methoxy-phenyl)-3-thiophen-2-yl-1-(3,4,5-trimethoxy-phenyl)-azetidin-2-one]
IC50 [3]: 0.041 µM

Structure (SMILES): COc1ccc(C2C(c3ccsc3)C(=O)N2c2cc(OC)c(OC)c(OC)c2)cc1O (centres unmarked) [Compound 20, 4-(3-Hydroxy-4-methoxy-phenyl)-3-thiophen-3-yl-1-(3,4,5-trimethoxy-phenyl)-azetidin-2-one]
melting point: 151 to 152 °C
IC50 [3]: 0.01 µM

Structure (SMILES): COc1ccc(C2C(c3ccc(N)cc3)C(=O)N2c2cc(OC)c(OC)c(OC)c2)cc1N (centres unmarked) [Compound 24, 4-(3-Amino-4-methoxy-phenyl)-3-(4-amino-phenyl)-1-(3,4,5-trimethoxy-phenyl)-azetidin-2-one]
IC50 [3]: 0.03 µM

Structure (SMILES): COc1ccc(C2CC(=O)N2c2cc(OC)c(OC)c(OC)c2)cc1 (centres unmarked) [Compound 26, 4-(4-Methoxyphenyl)-1-(3,4,5-trimethoxyphenyl)-azetidin-2-one]
IC50 [3]: 0.039 µM

Structure (SMILES): COc1ccc(C2C(C)C(=O)N2c2cc(OC)c(OC)c(OC)c2)cc1 (centres unmarked) [Compound 27, 4-(4-Methoxyphenyl)-3-methyl-1-(3,4,5-trimethoxyphenyl)-azetidin-2-one]
IC50 [3]: 0.047 µM

Structure (SMILES): COc1ccc(C2C(C)C(=O)N2c2cc(OC)c(OC)c(OC)c2)cc1O (centres unmarked) [Compound 28, 4-(3-Hydroxy-4-methoxyphenyl)-3-methyl-1-(3,4,5-trimethoxyphenyl)-azetidin-2-one]
IC50 [3]: 0.01 µM

Structure (SMILES): COc1ccc([C@H]2[C@H](c3ccccc3)C(=O)N2c2cc(OC)c(OC)c(OC)c2)cc1OP(=O)(O)O [Compound 29]
compound remaining after 24 hours ([4]; pH 4): 100%
compound remaining after 24 hours ([4]; pH 7.4): 100%
compound remaining after 24 hours ([4]; pH 9): 100%

Structure (SMILES): CC(=O)O[C@H]1C(=O)[C@@]2(C)[C@H]([C@H](OC(=O)c3ccccc3)[C@]3(O)C[C@H](OC(=O)[C@H](O)[C@@H](NC(=O)c4ccccc4)c4ccccc4)C(C)=C1C3(C)C)[C@]1(OC(C)=O)CO[C@@H]1C[C@@H]2O [Paclitaxel, paclitaxel]
IC50 [5]: 4.8 nM
IC50 [1]: > 10000 nM
RF [1]: >2,381
IC50 [6]: > 10000 nM
RF [6]: >2,083
IC50 [2]: 4.2 nM

Structure (SMILES): CC[C@]1(O)C[C@H]2CN(CCc3c([nH]c4ccccc34)[C@@](C(=O)OC)(c3cc4c(cc3OC)N(C=O)[C@H]3[C@@](O)(C(=O)OC)[C@H](OC(C)=O)[C@]5(CC)C=CCN6CC[C@]43[C@@H]65)C2)C1 [Vincristine, vincristine]
IC50 [5]: 2.2 nM
IC50 [1]: 1600 nM
RF [1]: 516
IC50 [6]: 610 nM
RF [6]: 277.3
IC50 [2]: 3.1 nM

The next lines start with the values.

IC50 [3]: 0.0468 µM
Structure (SMILES): COc1ccc(C2C(C(O)C=Cc3ccccc3)C(=O)N2c2cc(OC)c(OC)c(OC)c2)cc1O (centres unmarked) [Compound 7, 4-(3-Hydroxy-4-methoxy-phenyl)-3-(1-hydroxy-3-phenyl-allyl)-1-(3,4,5-trimethoxy-phenyl)-azetidin-2-one]

IC50 [3]: 0.05 µM
Structure (SMILES): COc1ccc(C2C(c3ccc(N)cc3)C(=O)N2c2cc(OC)c(OC)c(OC)c2)cc1 (centres unmarked) [Compound 9, 3-(4-Amino-phenyl)-4-(4-methoxy-phenyl)-1-(3,4,5-trimethoxyphenyl)-azetidin-2-one]

IC50 [3]: 0.065 µM
Structure (SMILES): COc1ccc(C2C(c3ccccc3)C(=O)N2c2cc(OC)c(OC)c(OC)c2)cc1N (centres unmarked) [Compound 13, 4-(3-Amino-4-methoxy-phenyl)-3-phenyl-1-(3,4,5-trimethoxy-phenyl)-azetidin-2-one]

melting point: 177 °C
IC50 [3]: 0.039 µM
Structure (SMILES): COc1ccc(C2C(c3ccc(O)cc3)C(=O)N2c2cc(OC)c(OC)c(OC)c2)cc1N (centres unmarked) [Compound 15, 4-(3-Amino-4-methoxy-phenyl)-3-(4-hydroxy-phenyl)-1-(3,4,5-trimethoxy-phenyl)-azetidin-2-one]

IC50 [3]: 0.065 µM
Structure (SMILES): COc1ccc(C2C(c3ccc(F)cc3)C(=O)N2c2cc(OC)c(OC)c(OC)c2)cc1O (centres unmarked) [Compound 16, 3-(4-Fluoro-phenyl)-4-(3-hydroxy-4-methoxy-phenyl)-1-(3,4,5-trimethoxy-phenyl)-azetidin-2-one]

melting point: 113 to 114 °C
IC50 [3]: 0.007 µM
Structure (SMILES): COc1ccc(C2C(c3cccs3)C(=O)N2c2cc(OC)c(OC)c(OC)c2)cc1O (centres unmarked) [Compound 18, 4-(3-Hydroxy-4-methoxy-phenyl)-3-thiophen-2-yl-1-(3,4,5-trimethoxy-phenyl)-azetidin-2-one]

melting point: 130 °C
IC50 [3]: 0.06 µM
Structure (SMILES): COc1ccc(C2C(c3ccsc3)C(=O)N2c2cc(OC)c(OC)c(OC)c2)cc1 (centres unmarked) [Compound 21, 4-(4-Methoxy-phenyl)-3-thiophen-3-yl-1-(3,4,5-trimethoxy-phenyl)-azetidin-2-one]

IC50 [3]: 0.0689 µM
Structure (SMILES): COc1ccc(C2C(c3cccc(O)c3)C(=O)N2c2cc(OC)c(OC)c(OC)c2)cc1 (centres unmarked) [Compound 22, 3-(3-Hydroxy-phenyl)-4-(4-methoxy-phenyl)-1-(3,4,5-trimethoxy-phenyl)-azetidin-2-one]

IC50 [3]: 0.004 µM
Structure (SMILES): COc1ccc(C2C(c3ccc(N)cc3)C(=O)N2c2cc(OC)c(OC)c(OC)c2)cc1O (centres unmarked) [Compound 23, 3-(4-Amino-phenyl)-4-(3-hydroxy-4-methoxy-phenyl)-1-(3,4,5-trimethoxy-phenyl)-azetidin-2-one]

compound remaining after 24 hours ([4]; pH 4): 60%
compound remaining after 24 hours ([4]; pH 7.4): 42%
compound remaining after 24 hours ([4]; pH 9): 54%
Structure (SMILES): COc1ccc(C2[C@H](c3ccccc3)C(=O)N2c2cc(OC)c(OC)c(OC)c2)cc1OC(C)=O (some centres unmarked) [Compound 30]

compound remaining after 24 hours ([4]; pH 4): 61%
compound remaining after 24 hours ([4]; pH 7.4): 35%
compound remaining after 24 hours ([4]; pH 9): 76%
Structure (SMILES): COc1ccc(C2[C@H](c3ccccc3)C(=O)N2c2cc(OC)c(OC)c(OC)c2)cc1OC(=O)c1ccccc1 (some centres unmarked) [Compound 31]
